From PMC11677424, “Early-Stage IM Treatment with the Host-Derived Immunostimulant CPDI-02 Increases Curative Protection of Healthy Outbred Mice Against Subcutaneous Infection with Community-Acquired Methicillin-Resistant Staphylococcus aureus USA300” (Pharmaceutics, 2024)
In brackets after ≈: the same amount, converted by molar mass.

Experiments:
[1] = test system: CA-MRSA USA300 LAC; experiment: Curative treatment of female CD-1 mice infected SQ with CA-MRSA: abscess surface area by image analysis; type: in vivo, Staphylococcus aureus; settings: for effect on maximum abscess surface area or time to resolution vs vehicle alone: 6 treatments
Method: CA-MRSA USA300 LAC (Staphylococcus aureus Rosenbach, ATCC BAA-1756) was stored in 50% glycerol at −80 °C until use. To start a culture, a Tryptic Soy Agar (TSA; Remel) plate was streaked and incubated overnight at 37 °C. A single colony from the streaked agar plate was transferred to a 50 mL conical tube containing 30 mL of Tryptic Soy Broth (TSB; Remel) and incubated [37 °C] overnight while shaking [200 rpm]. The overnight culture was diluted [1:10] in TSB, incubated at 37 °C for ~2 h until A600 = 0.5 to 0.55, and pelleted [3000 g, 10 min] at 4 °C. The pellet was resuspended in PBS and pelleted as before and then resuspended in 0.05% (w/v) Cytodex-1 in sterile PBS (typical yield ~5 × 10^8 CFU/mL). MRSA concentration was confirmed by serial dilution in sterile PBS, dot plating on TSA plates, and incubation at 37 °C for 24 h before counting.
All procedures were approved by the University of Nebraska Medical Center Institutional Animal Care and Use Committee. Female outbred CD-1 mice (Charles Rivers, Strain Code 022, 4-6 weeks old) were acclimated in the animal facility for at least one week, and their rear flanks were shaved 24 h before the study. Mice were anesthetized with isoflurane and 0.100 mL of CA-MRSA stock solution (Section 2.3) was injected SQ (5 × 10^7 CFU total) from the left rear flank into the dorsal side. […] For IM (left caudal muscle) and SQ (left flank) administration, CPDI-02 was administered in 0.050 mL of sterile PBS [20 mg/mL] (volume adjusted to 50 mg/kg dose). For topical administration (TOP), CPDI-02 was applied to abscesses in 0.100 mL of ointment (3% w/v) (Section 2.2) using a positive displacement pipette [150 mg/kg dose]. For IV administration (tail vein), CPDI-02 was administered in 0.050 mL sterile PBS [5 mg/mL] (volume adjusted to 12.5 mg/kg dose). […] Mouse abscesses were imaged with reference scales daily over 10 days starting at 24 h post-challenge. Abscess surface areas were determined by image analysis (ImageJ®, ver.1.54h) and compared between vehicle and treatment group for each administration route over ten days post-challenge by repeated measurement with two-way ANOVA with Geisser–Greenhouse correction.

[2] = Preliminary PK and distribution after IM or IV administration (LC-MS/MS); type: in vivo, female outbred CD-1 mice
Method: Female outbred CD-1 mice (4-6 weeks old) were infected SQ with CA-MRSA, as described (Section 2.4). At 6 h post-infection, vehicle alone (PBS) or vehicle containing 12.5 mg CPDI-02/kg (IV) or 50 mg/kg (IM) and blood samples (50 µL) were collected from the submandibular vein (Medipoint Goldenrod Lancet, 5 mm) at 2, 4, 8, and 24 h post-treatment into EDTA-coated tubes containing 200 µL of acidified methanol (0.1% formic acid v/v), and immediately mixed by repeated inversion. Samples were pelleted (16,000 RCF) for 10 min, and supernatants were stored at −80 °C until analysis. At 24 h post-challenge, mice were euthanized, and rear flanks were disinfected with 70% ethanol. Abscesses (Section 2.5) and organs were excised, rinsed with deionized H2O, dried, and 50 mg sections were collected in 200 µL of acidified methanol, homogenized using a gentleMACS Dissociator (Miltenyi Biotec 130-093-235, Tokyo, Japan), and stored at −80 °C until analysis.
Peptide quantitation was performed using a Waters ACQUITY UPLC system coupled to a Xevo TQ-XS Tandem Quadrupole Mass Spectrometer with electrospray ionization. […] The following MRM m/z values were monitored: 621.4 > 84 and 621.4 > 100 for the analyte and IS, respectively. Peptide concentrations were determined using analyte-to-IS peak area ratios. […]

[3] = test system: primary human mononuclear phagocytes (MPs); settings: cited from earlier work
Description: (§1) Complement Peptide-Derived Immunostimulant-02 (CPDI-02) (formerly EP67) is a novel, second-generation host-derived decapeptide agonist of […] (C5) Receptor 1 (C5aR1/C5a1R/CD88), which is based on the C-terminal pharmacophore of human Complement Peptide C5a (hC5a).

[4] = test system: primary human neutrophils (NPs); settings: cited from earlier work
Description: as §1

[5] = physchem; settings: aqueous buffer

SMILES: CSCC[C@H](NC(=O)[C@H](CC(=O)O)NC(=O)[C@H](CCCCN)NC(=O)[C@H](Cc1ccccc1)NC(=O)[C@H](CO)NC(=O)[C@@H](N)Cc1ccc(O)cc1)C(=O)N1CCC[C@H]1C(=O)N(C)[C@@H](CC(C)C)C(=O)N[C@H](C)C(=O)N[C@@H](CCCNC(=N)N)C(=O)O [CPDI-02]
- effect of repeat treatment starting at 24 h post-challenge ([1]; regardless of administration route): no effect
- maximum abscess surface area (Day 1 post-challenge) ([1]; repeat IM 50 mg/kg starting 6 h post-challenge, mean ± SEM, n = 10, vehicle 74 ± 11, p = 0.0052, SEM): 31 ± 8 mm^2
- effect on maximum abscess surface area or time to resolution vs vehicle alone ([1]; repeat IV (tail vein) 12.5 mg/kg starting 6 h post-challenge): no effect
- effect on maximum abscess surface area or time to resolution vs vehicle alone ([1]; repeat SQ (left flank) 50 mg/kg starting 6 h post-challenge): no effect
- effect on maximum abscess surface area or time to resolution vs vehicle alone ([1]; repeat topical (TOP), 0.100 mL of 3% w/v ointment on abscess, 150 mg/kg, starting 6 h post-challenge): no effect
- time to resolution vs vehicle alone ([1]; single IM 50 mg/kg at 6 h post-challenge, similar extent as repeated IM treatment): decreased
- relative distribution to heart, lungs, liver, kidneys, spleen or brain, IM vs IV ([2]; IM 50 mg/kg vs IV 12.5 mg/kg, 18 h post-treatment, n = 3 to 5): no effect
- plasma concentrations after IM vs IV administration ([2]; abscess-bearing female CD-1 mice, IM 50 mg/kg vs IV 12.5 mg/kg at 6 h post-challenge, 2, 4, 8, 24 h post-treatment, n = 5): increased
- potency for activating MPs over NPs ([3]; primary human MPs vs primary human NPs): 10^3 fold
- EC50 ([3]; primary human MPs): 0.167 µM
- EC50 [4]: 160 µM
- solubility [5]: ~100 mg/mL (≈ 80.5 mM)
